Results published in patent publication EP0256472A2, “Cosmetic agent for application to skin” (priority 1986, dated 1988).

Key:
[1] = test system: Fibroblasts originating in the human skin; assay: Promotion of growth of dermal fibroblasts (Test Example 1); format: cell-based; conditions: 10⁻⁵ M, 1% serum, 14 days; words of the text only, Table 2 is an image
Experimental: The action of promoting the growth of dermal fibroblasts by the coenzymes and nucleic acid related substances used in the present invention was evaluated in accordance with the following method:
Fibroblasts originating in the human skin were cultured in media to which the above-described compounds had been added and to which no such compound was added under serum controlled conditions and the effect of the compounds on proliferation was examined. That is, the above-described fibroblasts were cultured in a Co₂-incubator at 37°C for 24 hours in Eagle's MEM medium (pH 7.6) to which were added 10% of fetal bovine serum and the like. The medium was then changed to a medium in which the serum was lowered 1% and in which the fibroblasts were then cultured for 24 hours. The medium was then changed into a medium containing 10⁻⁵ M of a substance for examination and 1% of serum in which the culture was continued.
The medium was then changed on alternate days. The results obtained are shown in Table 2 in which the number of cells for each case is shown by a relative value obtained by assuming the number of cells after 14 days to be 100 in the case of the control in which no substance for examination was added.

collagen = assay: Promotion of collagen production in skin-excised rats: weight of granulation and hydroxyproline (Test Example 2); format: in vivo, Wistar 6-week old male rats; conditions: for increases in the weights of regenerated granulation and the amounts of hydroxyproline (in words): summary of Table 3
Experimental: The action of promoting the production of collagen by the coenzymes and the nucleic acid related substances used in the present invention was evaluated in accordance with the following method:
Each rat was killed on the seventh day, and then the circular portion was cut out and the weight of granulation (derma) and the amount of hydroxyproline, which is a specific amino acid constituting collagen, were measured as an index of the amount of reproduced collagen.

collagen elastin fibril = assay: Tensile strength of healed linear skin cut in rats (Test Example 3); format: in vivo, Wistar 6-week old male rats; conditions: for increases in the tensile strength of collagen elastin fibril (in words): summary of Table 4
Experimental: The effect of the coenzymes and the nucleic acid related substances against the strength of collagen elastin fibril was conducted as follows:
After hair had been removed from the back of each rat in a group comprising eight Wistar 6-week old male rats, the back of the rat was cut along the median line of the back by a scalpel to make a linear cut portion having a length of 4 cm, and the cut portion was sewed up at 3 positions at equally spaced intervals by Michel's clips. The Michel's clips were removed 3 days after the sewing. 0.1 ml of each of physiological saline containing 50 mM of the above described compound or a physiological saline containing no compound (control) was repeatedly applied to the cut portion once a day for 7 days. Each rat was killed on the eighth day, and the skin of the cut portion was cut out to prepare three samples per rat, each sample being a strip of skin having a width of 1 cm crossing the cutting line.
The tensile strength of the sample up to breakage point was measured by a tensiometer to determine the strength of reproduced collagen elastin fibril. In the Table, values of the strength are shown as relative values obtained on the assumption that those of the control were 100.
In the above test, a relative value of the strength of more than 110 is considered to show an increase in the tensile strength.

Acute oral toxicity = format: in vivo; conditions: rat
[2] = guinea pig, in vivo
[3] = guinea pig, in vivo; remark: listed apart in the source
[4] = rabbit, in vivo
[5] = guinea pig, in vivo; remark: listed apart in the source
[6] = guinea pig, in vivo; remark: listed apart in the source
[7] = in vivo
[8] = Half face use test of cosmetic agents on women: elasticity, complexion, roughness, wrinkling of the skin; format: in vivo, human; conditions: Example 9: toilet water as in Example 7 with this compound in place of N²,O^2ʹ-DBcGMP Na
Description: Two groups each of which comprised 20 statistically-equivalent women (30 to 50 years old) were selected and the toilet water samples I and II were applied separately to the right and left face portions, respectively, of each woman in one group and the toilet water samples I and III were respectively applied to same portions of each woman in the other group by a half face method twice a day (in the morning and at night) for 3 months. The degree of improvement in terms of elasticity, complexion, roughness, and wrinkling of the skin were then examined. […]
The effectiveness of thus-prepared toilet waters was actually measured by the same method as set forth in Example 1.
The toilet water samples of the present invention and of the comparison were applied separately to the right and left face portions, respectively, of each woman in a group comprising 20 women (30 to 50 years old) by a half face method twice a day (in the morning and at night) for 3 months. The degree of improvement in terms of elasticity, complexion, roughness, and wrinkles of the skin was then examined. […]

[9] = Colour tone of the skin of colored guinea pigs, color-difference meter (Example 10); format: in vivo, guinea pig; conditions: cream with 0.5% of active principle, twice a day for 14 days; larger value = whiter skin
Experimental: After hair had been removed from the back of each colored guinea pig (3 guinea pigs in a group), a cream with which 0.5% of an active principle was mixed (cGMP or its derivatives in place of FAD 2Na used in Example 2) and a cream containing no active principle were respectively applied to the back of each guinea pig twice a day (in the morning and at night) every day for 14 days. The difference in colour tone of the skin before and after the application was measured by a color-difference meter.
The numerical values shown in the table are L-values (lightness) and a larger value indicates a whiter skin.

[10] = Lightness of discolored spot or freckled portion of human skin, color-difference meter (Example 11); format: in vivo; conditions: Example 12: cream as in Example 11 with this compound instead of N²,O^2ʹ-DBcGMP Na and cGMP Na
Experimental: Creams having the compositions shown in Table 23 were prepared and then applied to a discolored spot or freckled portion of the skin of each of 6 men and women in the morning and at night twice a day for 3 months. The lightness of the discolored spot portions was measured by a color-difference meter before and after the application.
The numerical values obtained before and after the application shown in the table are L-values (lightness).

[11] = Safety tests in the same way as in Example 1 (acute toxicity, skin irritation, skin sensitization); format: in vivo
Description: The above-described coenzymes and nucleic acid related substances used in the present invention are widely present in organisms and are thus thought to be extremely safe.

[12] = relative value, control = 100, 0.1 ml of 50 mM in 10% ethanol twice a day for 6 days, seventh day
[13] = tested in the same way as in Example 1

## 5ʹ-deoxyadenosylcobalamine [CoB12]
[1]
  growth promotion functions for human fibroblasts: particularly excellent effects
collagen; [12]
  Amount of hydroxyproline: 167
  Weight of granulation: 181
collagen
  increases in the weights of regenerated granulation and the amounts of hydroxyproline (in words): particularly excellent effects
Collagen elastin fibril; relative value, control = 100, more than 110 is considered an increase, 0.1 ml of 50 mM in physiological saline once a day for 7 days, eighth day
  Tensile strength: 122
Collagen elastin fibril
  increases in the tensile strength of collagen elastin fibril (in words): particularly excellent effect
Acute oral toxicity
  LD50 value: LD50 value; 5 g/kg or more
[2]
  Primary skin irritation: 5%; non-irritant
[3]
  Phototoxicity: negative
[4]
  Ocular-mucous membrane irritation: 5%, non-irritant
[5]
  Skin sensitization: negative
[6]
  Photosensitization: negative
[7]
  Human patch test: 5%; non-irritant

## Nc1nc2c(nc(Br)n2[C@@H]2O[C@@H]3COP(=O)(O)O[C@H]3[C@H]2O)c(=O)[nH]1 [8-BrcGMP Na]
[8]
  effect of preventing the aging of the skin: excellent effects similar to those of Example 7
[9]
  L-values (lightness) After application: 45.4
[10]
  properties of the creams (lightness of discolored spots): results similar to those in Example 11

## Nc1nc2c(nc(Sc3ccc(Cl)cc3)n2[C@@H]2O[C@@H]3COP(=O)(O)O[C@H]3[C@H]2O)c(=O)[nH]1 [8-ClPhScGMP Na]
[9]
  L-values (lightness) After application: 45.3

## CC(C)(COP(=O)(O)OP(=O)(O)OC[C@H]1O[C@@H](n2cnc3c(N)ncnc32)[C@H](O)[C@@H]1OP(=O)(O)O)[C@@H](O)C(=O)NCCC(=O)NCCS [CoA 3Na, coenzyme A]
[1]
  growth promotion functions for human fibroblasts: particularly excellent effects
collagen
  increases in the weights of regenerated granulation and the amounts of hydroxyproline (in words): particularly excellent effects
Collagen elastin fibril
  increases in the tensile strength of collagen elastin fibril (in words): particularly excellent effect
[11]; in vivo
  safety with respect to skin irritation, etc.: no problem was observed

## Cc1cc2nc3c(=O)[nH]c(=O)nc-3n(C[C@H](O)[C@H](O)[C@H](O)COP(=O)(O)OP(=O)(O)OC[C@H]3O[C@@H](n4cnc5c(N)ncnc54)[C@H](O)[C@@H]3O)c2cc1C [FAD 2Na, Flavin adenine dinucleotide]
[11]; [13]
  safety with respect to skin irritation, etc.: no problem was observed

## NC(=O)c1ccc[n+]([C@@H]2O[C@H](COP(=O)([O-])OP(=O)(O)OC[C@H]3O[C@@H](n4cnc5c(N)ncnc54)[C@H](O)[C@@H]3O)[C@@H](O)[C@H]2O)c1 [NAD Na, β-nicotinamide adenine dinucleotide]
[11]; [13]
  safety with respect to skin irritation, etc.: no problem was observed

## NC(=O)c1ccc[n+]([C@@H]2O[C@H](COP(=O)([O-])OP(=O)(O)OC[C@H]3O[C@@H](n4cnc5c(N)ncnc54)[C@H](OP(=O)(O)O)[C@@H]3O)[C@@H](O)[C@H]2O)c1 [NADP Na, β-nicotinamide adenine dinucleotide phosphate]
[11]; [13]
  safety with respect to skin irritation, etc.: no problem was observed

## CCCC(=O)Nc1nc2c(ncn2[C@@H]2O[C@@H]3COP(=O)(O)O[C@H]3[C@H]2OC(=O)CCC)c(=O)[nH]1 [N^2,O^2'-DBcGMP Na]
[11]; [13]
  safety with respect to skin irritation, etc.: problems such as skin irritating property were not found
[9]
  L-values (lightness) After application: 45.5

## O=C(O)CCC(=O)Nc1nc2c(ncn2[C@@H]2O[C@@H]3COP(=O)(O)O[C@H]3[C@H]2OC(=O)CCC(=O)O)c(=O)[nH]1 [N^2,O^2'-DScGMP Na]
[8]
  effect of preventing the aging of the skin: excellent effects similar to those of Example 7
[9]
  L-values (lightness) After application: 45.3

## CCCC(=O)Nc1nc2c(ncn2[C@@H]2O[C@@H]3COP(=O)(O)O[C@H]3[C@H]2O)c(=O)[nH]1 [N^2-MBcGMP Na]
[8]
  effect of preventing the aging of the skin: excellent effects similar to those of Example 7
[9]
  L-values (lightness) After application: 44.6
[10]
  properties of the creams (lightness of discolored spots): results similar to those in Example 11

## O=C(O)CCC(=O)Nc1nc2c(ncn2[C@@H]2O[C@@H]3COP(=O)(O)O[C@H]3[C@H]2O)c(=O)[nH]1 [N^2-MScGMP Na]
[9]
  L-values (lightness) After application: 44.6

## CCCC(=O)OC1C2OP(=O)(O)OCC2OC1n1cnc2c(=O)[nH]c(N)nc21 (stereo not drawn) [O^2'-MBcGMP Na]
[8]
  effect of preventing the aging of the skin: excellent effects similar to those of Example 7
[9]
  L-values (lightness) After application: 43.7
[10]
  properties of the creams (lightness of discolored spots): results similar to those in Example 11

## Nc1nc2c(ncn2[C@@H]2O[C@@H]3COP(=O)(O)O[C@H]3[C@H]2OC(=O)CCC(=O)O)c(=O)[nH]1 [O^2'-MScGMP Na]
[9]
  L-values (lightness) After application: 43.8

## O=C(O)c1cc(C(=O)O)c2c(n1)C(=O)C(=O)c1cc(C(=O)O)[nH]c1-2 [PQQ 2Na, Pyrrolo-quinoline quinone]
[11]; in vivo
  safety with respect to skin irritation, etc.: no problem was observed

## Nc1nc2c(ncn2[C@@H]2O[C@@H]3COP(=O)(O)O[C@H]3[C@H]2O)c(=O)[nH]1 [cGMP Na, guanosine 3ʹ,5ʹ-cyclic monophosphate]
[11]; [13]
  safety with respect to skin irritation, etc.: no problem
[9]
  L-values (lightness) After application: 43.0
